Measurements as given in ChEMBL document CHEMBL5050861 (2021).
Converted amounts (≈) assume the structure as drawn.

Columns and labels:
[1] = Stability of compound in rat microsomes assessed as half-life; format: ADME, Microsome
[2] = Kinetic aqueous solubility of the compound; format: physicochemical; conditions: buffer; read-out: Kinetic_solubility
[3] = Permeability of compound by PAMPA assay; format: ADME; conditions: for Papp: read-out: permeability
[4] = Inhibition of recombinant mouse GALK1 using ATP as substrate incubated for 1 hr and measured by Kinase-Glo assay

Row | half-life [1] | solubility kinetic [2] | Papp [3] | IC50 ([4]; read-out: IC50) | permeability [3] | IC50 [4] | SMILES
1 | > 30 min | < 1 µg/mL | < 1.5 ×10⁻⁶ cm/s | 19.3 µM | – | – | CC1=C(C(=O)Nc2nnc(-c3cccnc3)s2)C(c2ccccc2Cl)N=C(Nc2nc3cc(F)ccc3o2)N1 (configuration not stated)
2 | > 30 min | > 76 µg/mL | < 1.3 ×10⁻⁶ cm/s | 34.4 µM | – | – | CC1=C(C(=O)Nc2cc(C(=O)O)ccn2)[C@@H](c2ccccc2Cl)N=C(Nc2nc3cccc(N)c3o2)N1
3 | 7.71 min | < 1 µg/mL | – | 17.2 µM | 1038.5 10^-6 cm/s | – | CC1=C(C(=O)Nc2ccccc2CO)C(c2ccccc2Cl)N=C(Nc2nc3ccccc3o2)N1 (configuration not stated)
4 | 30 min | 23.9 µg/mL (≈ 47.3 µM) | < 4.7 ×10⁻⁶ cm/s | 7.69 µM | – | – | O=C1CC(C(=O)N2CCNCC2)CC2=C1C(c1ccccc1Cl)N=C(Nc1nc3ccccc3o1)N2 (configuration not stated)
5 | > 30 min | 1.23 µg/mL (≈ 2.37 µM) | < 5 ×10⁻⁶ cm/s | 12.2 µM | – | – | O=C1CC(C(=O)Nc2nncs2)CC2=C1C(c1ccccc1Cl)N=C(Nc1nc3ccccc3o1)N2 (configuration not stated)
6 | 10.3 min | < 1 µg/mL | < 17.4 ×10⁻⁶ cm/s | 13.7 µM | – | – | COC(=O)Cc1cccc(NC(=O)C2=C(C)NC(Nc3nc4ccccc4o3)=NC2c2ccccc2Cl)c1 (configuration not stated)
7 | > 30 min | > 79 µg/mL | < 1 ×10⁻⁶ cm/s | 17.2 µM | – | – | CC1=C(C(=O)Nc2cc(C(=O)O)ccn2)C(c2cccc(N)c2Cl)N=C(Nc2nc3ccc(F)cc3o2)N1 (configuration not stated)
8 | > 30 min | < 1 µg/mL | – | 9.68 µM | 1124.1 10^-6 cm/s | – | CC1=C(C(=O)Nc2cccc(CO)c2)C(c2ccccc2Cl)N=C(Nc2nc3ccccc3o2)N1 (configuration not stated)
9 | > 30 min | > 74 µg/mL | < 1 ×10⁻⁶ cm/s | 3.43 µM | – | – | CC1=C(C(=O)Nc2cc(C(=O)O)ccn2)[C@H](c2ccccc2Cl)N=C(Nc2nc3ccccc3o2)N1
10 | > 30 min | < 1 µg/mL | < 9.9 ×10⁻⁶ cm/s | 38.5 µM | – | – | CC1=C(C(=O)Nc2nnc(-c3cccnc3)s2)C(c2ccccc2Cl)N=C(Nc2nc3ccc(F)cc3o2)N1 (configuration not stated)
11 | > 30 min | < 1 µg/mL | < 3.7 ×10⁻⁶ cm/s | 9.68 µM | – | – | CC1=C(C(=O)Nc2nnc(-c3cccnc3)s2)C(c2ccccc2Cl)N=C(Nc2nc3ccccc3o2)N1 (configuration not stated)
12 | > 30 min | > 84 µg/mL | < 1 ×10⁻⁶ cm/s | 34.4 µM | – | – | CC1=C(C(=O)Nc2cc(C(=O)O)ccn2)C(c2cccc([N+](=O)[O-])c2Cl)N=C(Nc2nc3ccc(F)cc3o2)N1 (configuration not stated)
13 | > 30 min | 61.8 µg/mL (≈ 122 µM) | < 9.8 ×10⁻⁶ cm/s | 12.2 µM | – | – | CN(C)CCNC(=O)C1CC(=O)C2=C(C1)NC(Nc1nc3ccccc3o1)=NC2c1ccccc1Cl (configuration not stated)
14 | > 30 min | 73.9 µg/mL (≈ 122 µM) | < 1 ×10⁻⁶ cm/s | 7.69 µM | – | – | CC1=C(C(=O)Nc2cc(C(=O)O)ccn2)C(c2ccccc2Cl)N=C(Nc2nc3ccccc3o2)N1C(=O)c1ccccc1 (configuration not stated)
15 | > 30 min | 19.4 µg/mL (≈ 32.9 µM) | < 1 ×10⁻⁶ cm/s | 10.9 µM | – | – | CC1=C(C(=O)Nc2cc(C(=O)O)ccn2)C(c2ccc(C(F)(F)F)cc2Cl)N=C(Nc2nc3ccc(F)cc3o2)N1 (configuration not stated)
16 | > 30 min | > 87 µg/mL | < 1 ×10⁻⁶ cm/s | 10.9 µM | – | – | CC1=C(C(=O)Nc2cc(C(=O)O)ccn2)C(c2ccc(N3CCCC3)cc2Cl)N=C(Nc2nc3ccc(F)cc3o2)N1 (configuration not stated)
17 | > 30 min | 47.5 µg/mL (≈ 90.3 µM) | 5 ×10⁻⁶ cm/s | 34.4 µM | – | – | CC1=C(C(=O)Nc2cccc(-c3nnn[nH]3)c2)C(c2ccccc2Cl)N=C(Nc2nc3ccccc3o2)N1 (configuration not stated)
18 | 5.09 min | < 1 µg/mL | – | 15.3 µM | 1362.3 10^-6 cm/s | – | CC1=C(C(=O)NCc2ccccc2CO)C(c2ccccc2Cl)N=C(Nc2nc3ccccc3o2)N1 (configuration not stated)
19 | > 30 min | < 1 µg/mL | < 7.8 ×10⁻⁶ cm/s | 13.7 µM | – | – | CC1=C(C(=O)Nc2ccc(C#N)cn2)C(c2ccccc2Cl)N=C(Nc2nc3ccc(F)cc3o2)N1 (configuration not stated)
20 | > 30 min | < 1 µg/mL | < 6.8 ×10⁻⁶ cm/s | 4.85 µM | – | – | CC1=C(C(=O)Nc2cc(C#N)ccn2)C(c2ccccc2Cl)N=C(Nc2nc3ccc(F)cc3o2)N1 (configuration not stated)
21 | > 30 min | > 77 µg/mL | < 1 ×10⁻⁶ cm/s | 3.43 µM | – | – | CC1=C(C(=O)Nc2ccc(C(=O)O)cn2)C(c2ccccc2Cl)N=C(Nc2nc3ccc(F)cc3o2)N1 (configuration not stated)
22 | 2.1 min | 15.3 µg/mL (≈ 33.9 µM) | – | 24.3 µM | 1046.7 10^-6 cm/s | – | CC1=C(C(=O)N2CCOCC2)C(c2ccccc2Cl)N=C(Nc2nc3ccccc3o2)N1 (configuration not stated)
23 | > 30 min | > 74 µg/mL | < 1 ×10⁻⁶ cm/s | 19.3 µM | – | – | CC1=C(C(=O)Nc2cc(C(=O)O)ccn2)[C@@H](c2ccccc2Cl)N=C(Nc2nc3ccccc3o2)N1
24 | > 30 min | 53.8 µg/mL (≈ 101 µM) | < 1 ×10⁻⁶ cm/s | 6.85 µM | – | – | CC1=C(C(=O)Nc2cc(C(=O)O)ccn2)[C@@H](c2ccc(C)cc2Cl)N=C(Nc2nc3ccc(F)cc3o2)N1

Row | half-life [1] | solubility kinetic [2] | Papp [3] | IC50 ([4]; read-out: IC50) | permeability [3] | IC50 [4] | SMILES
25 | > 30 min | > 90 µg/mL | < 1 ×10⁻⁶ cm/s | 1.22 µM | – | – | CC1=C(C(=O)Nc2cc(C(=O)O)ccn2)C(c2ccc(-c3ccc(C)nc3)cc2Cl)N=C(Nc2nc3ccc(F)cc3o2)N1 (configuration not stated)
26 | 16.4 min | < 1 µg/mL | < 11.8 ×10⁻⁶ cm/s | 12.2 µM | – | – | CC1=C(C(=O)Nc2ccc(-n3cccn3)cc2)C(c2ccccc2Cl)N=C(Nc2nc3ccccc3o2)N1 (configuration not stated)
27 | > 30 min | < 1 µg/mL | < 4.4 ×10⁻⁶ cm/s | 21.7 µM | – | – | COc1ccc2nc(NC3=NC(c4ccccc4Cl)C(C(=O)Nc4nnc(-c5cccnc5)s4)=C(C)N3)oc2c1 (configuration not stated)
28 | > 30 min | > 81 µg/mL | < 1 ×10⁻⁶ cm/s | 34.4 µM | – | – | COc1ccc([C@H]2N=C(Nc3nc4cccc(N)c4o3)NC(C)=C2C(=O)Nc2cc(C(=O)O)ccn2)c(Cl)c1
29 | > 30 min | < 1 µg/mL | < 1 ×10⁻⁶ cm/s | 9.68 µM | – | – | CC1=C(C(=O)Nc2cc(-c3nn[nH]n3)ccn2)C(c2ccc(C)cc2Cl)N=C(Nc2nc3ccc(F)cc3o2)N1 (configuration not stated)
30 | > 30 min | > 76 µg/mL | < 1 ×10⁻⁶ cm/s | 30.6 µM | – | – | CC1=C(C(=O)Nc2cc(C(=O)O)ccn2)C(c2ccccc2Cl)N=C(Nc2nc3c(N)cccc3o2)N1 (configuration not stated)
31 | > 30 min | 11.3 µg/mL (≈ 20 µM) | < 1 ×10⁻⁶ cm/s | 3.85 µM | – | – | CCOc1ccc(C2N=C(Nc3nc4ccc(F)cc4o3)NC(C)=C2C(=O)Nc2cc(C(=O)O)ccn2)c(Cl)c1 (configuration not stated)
32 | 9.22 min | < 1 µg/mL | < 21.9 ×10⁻⁶ cm/s | 6.85 µM | – | – | CCn1cc(CNC(=O)C2=C(C)NC(Nc3nc4ccc(F)cc4o3)=NC2c2ccc(C)cc2Cl)cn1 (configuration not stated)
33 | > 30 min | < 1 µg/mL | < 10.3 ×10⁻⁶ cm/s | – | – | Not Active | CC1=C(C(=O)Nc2nnc(-c3cccnc3)s2)C(c2ccccc2Cl)N=C(Nc2nc3ccc(Cl)cc3o2)N1 (configuration not stated)
34 | > 30 min | < 1 µg/mL | < 14.9 ×10⁻⁶ cm/s | 15.3 µM | – | – | CC1=C(C(=O)Nc2ccc(Br)cc2)C(c2ccccc2Cl)N=C(Nc2nc3ccccc3o2)N1 (configuration not stated)
35 | > 30 min | > 52 µg/mL | < 1.8 ×10⁻⁶ cm/s | 4.32 µM | – | – | CC1=C(C(=O)Nc2cc(C(=O)O)ccn2)C(c2ccc(C)cc2Cl)N=C(Nc2nc3c(o2)CCCC3)N1 (configuration not stated)
36 | 8.63 min | 2.42 µg/mL (≈ 4.46 µM) | 894 ×10⁻⁶ cm/s | 48.5 µM | – | – | CC1=C(C(=O)Nc2ccc(N3CCNCC3)cc2)C(c2ccccc2Cl)N=C(Nc2nc3ccccc3o2)N1 (configuration not stated)
37 | > 30 min | > 53 µg/mL | < 1 ×10⁻⁶ cm/s | 1.41 µM | – | – | CC1=C(C(=O)Nc2cc(C(=O)O)ccn2)[C@H](c2ccc(C)cc2Cl)N=C(Nc2nc3cccc(N)c3o2)N1
38 | > 30 min | > 81 µg/mL | < 1 ×10⁻⁶ cm/s | 3.85 µM | – | – | CC1=C(C(=O)Nc2cc(C(=O)O)ccn2)C(c2ccc(C#N)cc2Cl)N=C(Nc2nc3ccc(F)cc3o2)N1 (configuration not stated)
39 | > 30 min | < 1 µg/mL | < 1 ×10⁻⁶ cm/s | 19.3 µM | – | – | CC1=C(C(=O)Nc2nncs2)C2(CCCC2)N=C(Nc2nc3ccccc3o2)N1
40 | > 30 min | > 51 µg/mL | < 1 ×10⁻⁶ cm/s | 6.85 µM | – | – | CC1=C(C(=O)Nc2cc(C(=O)O)ccn2)C(c2ccc(C)cc2Cl)N=C(Nc2nc3cnccc3o2)N1 (configuration not stated)
41 | > 30 min | 52.6 µg/mL (≈ 120 µM) | < 1 ×10⁻⁶ cm/s | 6.85 µM | – | – | O=C1CC(C(=O)O)CC2=C1C(c1ccccc1Cl)N=C(Nc1nc3ccccc3o1)N2 (configuration not stated)
42 | > 30 min | < 1 µg/mL | < 14.4 ×10⁻⁶ cm/s | 6.11 µM | – | – | CC1=C(C(=O)Nc2nncs2)C(c2ccc(C)cc2Cl)N=C(Nc2nc3ccccc3o2)N1 (configuration not stated)
43 | > 30 min | 29.9 µg/mL (≈ 54.9 µM) | < 1 ×10⁻⁶ cm/s | 7.69 µM | – | – | CC1=C(C(=O)Nc2cc(-c3nn[nH]n3)ccn2)C(c2ccccc2Cl)N=C(Nc2nc3ccc(F)cc3o2)N1 (configuration not stated)
44 | > 30 min | > 67 µg/mL | > 1230 ×10⁻⁶ cm/s | 15.3 µM | – | – | CC1=C(C(=O)NCCN(C)C)C(c2ccccc2Cl)N=C(Nc2nc3ccccc3o2)N1 (configuration not stated)
45 | > 30 min | 28.6 µg/mL (≈ 42.9 µM) | < 1 ×10⁻⁶ cm/s | 3.85 µM | – | – | CC1=C(C(=O)Nc2cc(C(=O)O)ccn2)C(c2ccc(-c3ccc(C(F)(F)F)nc3)cc2Cl)N=C(Nc2nc3ccc(F)cc3o2)N1 (configuration not stated)
46 | > 30 min | 24.6 µg/mL (≈ 48.9 µM) | < 1 ×10⁻⁶ cm/s | 9.68 µM | – | – | CC1=C(C(=O)Nc2ccc(C(=O)O)nc2)C(c2ccccc2Cl)N=C(Nc2nc3ccccc3o2)N1 (configuration not stated)
47 | > 30 min | 6.4 µg/mL (≈ 12.4 µM) | – | 19.3 µM | 1044 10^-6 cm/s | – | CC1=C(C(=O)Nc2nncs2)C(c2nn(C)cc2Br)N=C(Nc2nc3ccccc3o2)N1 (configuration not stated)

Row | SMILES | half-life [1] | solubility kinetic [2] | Papp [3] | IC50 ([4]; read-out: IC50) | permeability [3] | IC50 [4]
48 | CC1=C(C(=O)Nc2cc(C(=O)O)ccn2)C(c2ccc(C(=O)O)cc2Cl)N=C(Nc2nc3ccc(F)cc3o2)N1 (configuration not stated) | > 30 min | > 83 µg/mL | < 1 ×10⁻⁶ cm/s | 15.3 µM | – | –
